Format in all cases: physicochemical
Series [1] is described as follows: Solution Stability in aqueous solutions. To be noted: room temperature, all aqueous solutions (pH 1.6-10.5).
Series [2] in a line: Hygroscopicity.
The nature of series [3]: Octanol/Water Partitioning Coefficient. To be noted: @ pH 6.
Series [4] can be described thus: pH-Solubility. To be noted: free base.

For the compound `COC1CCC(O)(C(CN(C)C)c2ccc(O)cc2)CC1` (stereo not drawn) [4-[2-dimethylamino-1-(cis-1-hydroxy-4-methoxy-cyclohexyl)-ethyl]-phenol], the “Solution Stability, time stable” value in series [1] is “The compound was stable for at least 72 hours”. The Hygroscopicity entry in series [2] is given as “Non-hygroscopic”. The “Hygroscopicity, weight gain” value in series [2] (@ 60% RH) is reported as 0.44%; in series [2] (@ 90% RH, weight gain was lost when returned to 10% RH or 0% RH) it was 60% RH, 1.2% weight gain @ 90% RH,. Also, the “Octanol/Water Partitioning Coefficient Coct/Caq” value in series [3] was “Coct/Caq @ pH 6 = 6.857”. The pH-Solubility result is on record as “Final pH 1.60 >10.71 mg/ml” in series [4] (Final pH 1.60); “Final pH 7.62 >10.00 mg/ml” in series [4] (Final pH 7.62); “Final pH 8.21 >10.00 mg/ml” in series [4] (Final pH 8.21); “Final pH 9.00 7.65 mg/ml” in series [4] (Final pH 9.00); “Final pH 10.5 7.65 mg/ml” in series [4] (Final pH 10.5).
With `CN(C)CC(c1ccc(O)cc1)[C@]1(O)CC[C@@H](O)CC1.O=C(O)CCC(=O)O` (stereo partly drawn) [Succinate salt, 1-[2-dimethylamino-1-(4-phenol)ethyl]-cis-1,4-cyclohexandiol succinate], the Hygroscopicity entry in series [2] was “hygroscopic”.
